How the values were obtained:
[1] = tested on: vine downy mildew (Plasmopara viticola); conditions: in vivo
[2] = tested on: potato blight (Phytophthora infestans); type: in vivo; conditions: Solanum tuberosum Bintje, infection 48 h after treatment, read after 6 days, 3 repeats, confidence interval in brackets; for ED50 (confidence interval): effective dose providing 50% control; for ED70 (confidence interval): effective dose providing 70% control; for ED90 (confidence interval): effective dose providing 90% control

SMILES	ED50 (confidence interval) [1]	ED70 (confidence interval) [1]	ED50 (confidence interval) [2]	ED70 (confidence interval) [2]	ED90 (confidence interval) [2]
Cc1ccc(C(C)NC(=O)[C@@H](NC(=O)OC(C)C)C(C)C)cc1 (stereo partly shown) [Compound B, iprovalicarb]	7.3 (4.9-11) mg/l	17.5 (11.8-25.9) mg/l	27.8 (18.3-42.2) mg/l	69.3 (43.7-109.9) mg/l	296.6 (136.2-646) mg/l
O=C(NCc1ncc(C(F)(F)F)cc1Cl)c1c(Cl)cccc1Cl [Compound A, 2,6-dichloro-N-{[3-chloro-5-(trifluoromethyl)-2-pyridinyl]methyl}benzamide]	6.6 (4-10.9) mg/l	12.5 (8-19.6) mg/l	19.9 (12-33) mg/l	43.5 (24.5-77.2) mg/l	151.2 (61.5-371.8) mg/l

— patent publication US7288555B2 (priority 2001, dated 2007)
